Results published in publication PMC12154458, “High-Throughput Screens of Repurposing Hub and DOS Chemical Libraries Reveal Compounds with Novel and Potent Inhibitory Activity Against the Essential Non-Neuronal Acetylcholinesterase of Schistosoma mansoni (SmTAChE)” (International Journal of Molecular Sciences, 2025).
Entries after “also recorded” stand apart in the source; their conditions may differ. Where two headings read alike, the source gives them in different places.

Assays:
[1] = target: T1, rSmTAChE (Schistosoma mansoni, UniProt A0A3Q0KMM5); assay: biochemical
[2] = target: T1, rSmTAChE; assay type: biochemical; conditions: for IC50: read-out: IC50 (µM) rSmTAChE
[3] = target: recombinant human acetylcholinesterase, rHsAChE (Homo sapiens, UniProt P22303); assay: biochemical
[4] = read-out: rSmTAChE HTS Inhibition (Ave, %)
[5] = Table 3, read-out: IC50 (µM) rHsAChE
[6] = dose response analysis of Drug Repurposing Hub hits against rHsAChE
[7] = read-out: HTS/rSmTAChE Inhibition (Ave, %)
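Wherever Inhibition (%) (Average) is given: mostly 20 µM final but a few compounds at 5 or 10 µM.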
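Wherever Inhibition (%) Replicate A is given: mostly 20 µM final but a few compounds at 5 or 10 µM.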
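Wherever Inhibition (%) Replicate B is given: mostly 20 µM final but a few compounds at 5 or 10 µM.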

Sequence of recombinant human acetylcholinesterase, rHsAChE (P22303 32-614): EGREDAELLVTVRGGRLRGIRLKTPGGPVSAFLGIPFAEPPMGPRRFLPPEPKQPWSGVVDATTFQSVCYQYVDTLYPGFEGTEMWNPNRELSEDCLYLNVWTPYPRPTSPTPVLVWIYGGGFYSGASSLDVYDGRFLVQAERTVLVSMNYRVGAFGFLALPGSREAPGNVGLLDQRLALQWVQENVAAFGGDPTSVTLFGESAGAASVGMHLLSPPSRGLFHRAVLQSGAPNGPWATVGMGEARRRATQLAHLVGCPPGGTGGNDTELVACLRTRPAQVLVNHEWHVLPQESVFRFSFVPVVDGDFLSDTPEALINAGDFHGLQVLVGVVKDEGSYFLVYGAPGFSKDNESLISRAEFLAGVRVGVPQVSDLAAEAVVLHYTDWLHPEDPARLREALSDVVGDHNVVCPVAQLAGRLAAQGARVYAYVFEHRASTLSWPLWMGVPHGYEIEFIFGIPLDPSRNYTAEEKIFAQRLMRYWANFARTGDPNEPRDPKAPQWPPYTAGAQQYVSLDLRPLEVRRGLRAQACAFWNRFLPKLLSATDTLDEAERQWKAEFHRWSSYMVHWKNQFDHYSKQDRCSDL
T1 sequence (A0A3Q0KMM5 27-661 limits assumed): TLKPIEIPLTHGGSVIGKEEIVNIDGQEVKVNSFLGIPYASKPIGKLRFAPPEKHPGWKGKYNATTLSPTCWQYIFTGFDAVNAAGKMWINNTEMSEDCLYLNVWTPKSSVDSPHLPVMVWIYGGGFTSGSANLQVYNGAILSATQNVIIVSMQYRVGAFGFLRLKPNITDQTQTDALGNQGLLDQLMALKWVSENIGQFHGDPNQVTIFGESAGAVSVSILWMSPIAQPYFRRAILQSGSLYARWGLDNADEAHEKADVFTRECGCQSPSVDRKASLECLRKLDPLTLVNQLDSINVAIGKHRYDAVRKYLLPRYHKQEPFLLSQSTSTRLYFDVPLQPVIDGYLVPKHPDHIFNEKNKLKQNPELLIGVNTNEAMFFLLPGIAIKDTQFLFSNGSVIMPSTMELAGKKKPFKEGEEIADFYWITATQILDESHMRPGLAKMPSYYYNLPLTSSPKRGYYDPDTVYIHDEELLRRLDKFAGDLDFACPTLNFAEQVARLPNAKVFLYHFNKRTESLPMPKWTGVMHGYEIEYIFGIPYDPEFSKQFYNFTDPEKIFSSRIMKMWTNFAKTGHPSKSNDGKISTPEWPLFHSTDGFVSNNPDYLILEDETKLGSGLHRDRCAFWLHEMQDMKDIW

| Compound | Data Mode (curve class), rSmTAChE [2] | SI (Sm/Hs) [3] | Data Mode (curve class), rHsAChE [3, 6] | inhibition at 20 µM [1, 4] [%] | Data Mode (curve class), rHsAChE [3] | further results |
| --- | --- | --- | --- | --- | --- | --- |
| COc1ccc(-c2ccc3ncc4c(c3c2)n(-c2ccc(N3CCNCC3)c(C(F)(F)F)c2)c(=O)n4C)cn1 [NVP-BGT226, reference compound] | decreasing (weakly active) | 2.81 | decreasing (weakly active) | – | – | inhibition at 10 µM [1, 4]: 84.3%; IC50 [3, 5]: > 13.5 µM |
| CN(C)C(=O)Oc1cccc([N+](C)(C)C)c1 [Neostigmine bromide, reference compound] | decreasing | – | – | 88.1 | decreasing | – |
| CCCCCCCC/C=C\CCCCCCCC(=O)NCCc1ccc(O)c(O)c1 [OLDA, reference compound] | decreasing | 2.67 | – | – | decreasing (weakly active) | Inhibition (%) Replicate A [1]: 93.41%; Inhibition (%) Replicate B [1]: 95.51%; rSmTAChE HTS Inhibition (Ave, %) ([1]; 20 µM): 94.46%; IC50 [2]: 36.1 µM; IC50 ([3]; read-out: IC50 (µM) rHsAChE): > 13.5 µM |
| O=C(Nc1cccc2c(=O)cc(-c3nnn[nH]3)oc12)c1ccc(OCCCCc2ccccc2)cc1 [Pranlukast, reference compound] | decreasing | 2.18 | decreasing | 66.3 | – | IC50 ([3]; IC50 (µM) rHsAChE): 12.6 µM |
| Cc1cn2nc([C@@H]3CCCCN3C(=O)c3cc(Cl)ccc3NS(C)(=O)=O)cc2nc1N1CC[C@H](N)C1 [Presatovir, reference compound] | decreasing | – | decreasing (weakly active) | – | – | inhibition at 20 µM [1, 7]: 66.9% |
| CC(C)(Sc1cc(C(C)(C)C)c(O)c(C(C)(C)C)c1)Sc1cc(C(C)(C)C)c(O)c(C(C)(C)C)c1 [Probucol, reference compound] | decreasing (weakly active) | 5.36 | decreasing | 93.7 | – | IC50 ([3]; IC50 (µM) rHsAChE): 7.09 µM |
| CN(C)C(=O)Oc1ccc[n+](C)c1 [Pyridostigmine bromide, reference compound] | decreasing | – | – | 92.4 | decreasing (super-active) | – |
| CCCCC(CC)CCC(CC(C)C)OS(=O)(=O)O (stereo not drawn) [Sodium-tetradecyl-sulfate, reference compound] | decreasing | 2.01 | decreasing | 74.7 | – | IC50 [3, 5]: 5.66 µM |
| Cc1cc(OCCCS(C)(=O)=O)cc(C)c1-c1cccc(COc2ccc3c(c2)OC[C@H]3CC(=O)O)c1 [TAK-875, reference compound] | decreasing | – | decreasing (weakly active) | – | – | inhibition at 20 µM [1, 7]: 65%; SI (Hs/Sm) [2]: 2.25 |
| Cc1cnc(Nc2ccc(N3CCN(C)CC3)cc2)nc1Nc1cccc(S(=O)(=O)NC(C)(C)C)c1 [TG-101209, reference compound] | decreasing | – | – | – | decreasing | Inhibition (%) (Average) [1]: 70.99%; Inhibition (%) Replicate A [1]: 68.94%; Inhibition (%) Replicate B [1]: 73.04%; HTS/rSmTAChE Inhibition (Ave, %) ([1]; 20 µM): 71.00%; SI (Hs/Sm) [2]: 2.51; IC50 [2]: 6.13 µM; IC50 ([3]; read-out: IC50 (µM) rHsAChE): 15.4 µM; IC50 ([3]; read-out: qAC50 (IC50), rHsAChE): 15.4 µM |
| CCCCCCCCCCCCCCCC[N+](C)(C)CCN(Cc1ccc(OC)cc1)c1ncccn1 [Thonzonium bromide, reference compound] | decreasing | 2.92 | decreasing | 67 | – | IC50 ([3]; IC50 (µM) rHsAChE): 0.38 µM |
| Oc1cc(Cl)ccc1Oc1ccc(Cl)cc1Cl [Triclosan, reference compound] | decreasing | – | – | – | decreasing (weakly active) | inhibition at 20 µM [1, 7]: 68%; SI (Hs/Sm) [2]: 5.78 |
| CCN(c1ccccc1)c1cc(=NC)n(C)c(C)n1 [ZD-7288, 4-ethylphenylamino-1,2-dimethyl-6-methylaminopyrimidinium chloride, reference compound] | decreasing | – | decreasing (weakly active) | – | – | inhibition at 10 µM [1, 7]: 75%; SI (Hs/Sm) [2]: 46.87; fold greater potency/selectivity for SmTAChE vs. HsAChE (Selectivity Index) [2]: ~50 fold; IC50 ([3]; Table 1, Inactive = inactive at the maximum tested concentration (40 µM), read-out: IC50 (µM) rHsAChE): > 19.5 µM; IC50 ([3]; read-out: IC50 for rHsAChE): ~20 µM |
| SR-33805 [reference compound] | decreasing | – | – | – | – | Inhibition (%) (Average) [1]: 74.26%; Inhibition (%) Replicate A [1]: 73.90%; Inhibition (%) Replicate B [1]: 74.62%; HTS/rSmTAChE Inhibition (Ave, %) ([1]; 5 µM): 74.26%; IC50 [2]: 6.82 µM; IC50 (µM) rHsAChE [3]: Inactive; inhibition of rHsAChE, result in words [3]: no inhibition detected; also recorded: no activity detected |
